Source: the NIST ThermoML archive (doi:10.1016/j.tca.2012.01.007)
Numbers after ± are expanded uncertainties.

Experiment: wn = mass fraction of the nth substance listed
Details: 101 kPa, Liquid, Vibrating tube method

OCCNCCO [diethanolamine] + CCO
Details | mass density [kg/m3]
278.14 K, w1 = 0.1 | 827.791 ± 0.12
278.14 K, w1 = 1 | 1107.05 ± 0.32
278.15 K, w1 = 0.1999 | 854.007 ± 0.13
278.15 K, w1 = 0.3 | 881.862 ± 0.15
278.15 K, w1 = 0.3999 | 910.002 ± 0.17
278.15 K, w1 = 0.5001 | 939.811 ± 0.2
278.15 K, w1 = 0.5998 | 970.814 ± 0.19
278.15 K, w1 = 0.7002 | 1004.37 ± 0.19
278.15 K, w1 = 0.8001 | 1037.46 ± 0.21
278.15 K, w1 = 0.8417 | 1051.46 ± 0.23
278.15 K, w1 = 0.8997 | 1071.67 ± 0.26
283.14 K, w1 = 0.1 | 823.639 ± 0.13
283.14 K, w1 = 0.1999 | 849.953 ± 0.13
283.14 K, w1 = 0.3 | 877.917 ± 0.15
283.14 K, w1 = 1 | 1103.88 ± 0.31
283.15 K, w1 = 0.3999 | 906.254 ± 0.17
283.15 K, w1 = 0.5001 | 936.053 ± 0.2
283.15 K, w1 = 0.5998 | 967.135 ± 0.19
283.15 K, w1 = 0.7002 | 1000.78 ± 0.19
283.15 K, w1 = 0.8001 | 1034 ± 0.21
283.15 K, w1 = 0.8417 | 1048.09 ± 0.23
283.15 K, w1 = 0.8997 | 1068.38 ± 0.26
293.14 K, w1 = 0.1 | 815.297 ± 0.13
293.14 K, w1 = 0.1999 | 841.801 ± 0.14
293.14 K, w1 = 0.3 | 869.969 ± 0.15
293.14 K, w1 = 0.5998 | 959.776 ± 0.19
293.14 K, w1 = 0.8997 | 1061.73 ± 0.25
293.15 K, w1 = 0.3999 | 898.495 ± 0.17
293.15 K, w1 = 0.5001 | 928.504 ± 0.2
293.15 K, w1 = 0.7002 | 993.608 ± 0.19
293.15 K, w1 = 0.8001 | 1027.03 ± 0.21
293.15 K, w1 = 0.8417 | 1041.24 ± 0.23
293.15 K, w1 = 1 | 1097.51 ± 0.31
303.14 K, w1 = 0.1 | 806.876 ± 0.13
303.14 K, w1 = 0.3 | 861.949 ± 0.15
303.14 K, w1 = 1 | 1091.06 ± 0.3
303.15 K, w1 = 0.1999 | 833.564 ± 0.14
303.15 K, w1 = 0.3999 | 890.674 ± 0.18
303.15 K, w1 = 0.5001 | 920.9 ± 0.21
303.15 K, w1 = 0.5998 | 952.376 ± 0.2
303.15 K, w1 = 0.7002 | 986.404 ± 0.19
303.15 K, w1 = 0.8001 | 1020.01 ± 0.2
303.15 K, w1 = 0.8417 | 1034.3 ± 0.22
303.15 K, w1 = 0.8997 | 1054.97 ± 0.25
313.14 K, w1 = 0.1 | 798.332 ± 0.14
313.14 K, w1 = 0.3 | 853.824 ± 0.16
313.14 K, w1 = 1 | 1084.49 ± 0.3
313.15 K, w1 = 0.1999 | 825.235 ± 0.14
313.15 K, w1 = 0.3999 | 882.762 ± 0.18
313.15 K, w1 = 0.5001 | 913.212 ± 0.21
313.15 K, w1 = 0.5998 | 944.908 ± 0.2
313.15 K, w1 = 0.7002 | 979.15 ± 0.19
313.15 K, w1 = 0.8001 | 1012.95 ± 0.2
313.15 K, w1 = 0.8417 | 1027.32 ± 0.22
313.15 K, w1 = 0.8997 | 1048.11 ± 0.24
323.14 K, w1 = 0.1 | 789.624 ± 0.14
323.14 K, w1 = 0.1999 | 816.75 ± 0.14
323.14 K, w1 = 0.3 | 845.563 ± 0.16
323.14 K, w1 = 0.7002 | 971.82 ± 0.19
323.14 K, w1 = 1 | 1077.78 ± 0.29
323.15 K, w1 = 0.3999 | 874.726 ± 0.18
323.15 K, w1 = 0.5998 | 937.339 ± 0.2
323.15 K, w1 = 0.8001 | 1005.75 ± 0.2
323.15 K, w1 = 0.8417 | 1020.28 ± 0.21
323.15 K, w1 = 0.8997 | 1041.21 ± 0.24
323.16 K, w1 = 0.5001 | 905.4 ± 0.21
333.14 K, w1 = 0.1 | 780.704 ± 0.14
333.14 K, w1 = 0.1999 | 808.075 ± 0.15
333.14 K, w1 = 0.3 | 837.129 ± 0.16
333.14 K, w1 = 1 | 1071 ± 0.29
333.15 K, w1 = 0.3999 | 866.54 ± 0.18
333.15 K, w1 = 0.5001 | 897.474 ± 0.21
333.15 K, w1 = 0.5998 | 929.643 ± 0.2
333.15 K, w1 = 0.7002 | 964.37 ± 0.19
333.15 K, w1 = 0.8001 | 998.264 ± 0.19
333.15 K, w1 = 0.8417 | 1013.15 ± 0.21
333.15 K, w1 = 0.8997 | 1034.23 ± 0.23
343.14 K, w1 = 0.1 | 771.521 ± 0.15
343.14 K, w1 = 0.1999 | 799.163 ± 0.15
343.14 K, w1 = 0.3 | 828.477 ± 0.17
343.14 K, w1 = 0.5001 | 889.372 ± 0.22
343.14 K, w1 = 0.8997 | 1027.15 ± 0.23
343.14 K, w1 = 1 | 1064.14 ± 0.28
343.15 K, w1 = 0.3999 | 858.164 ± 0.19
343.15 K, w1 = 0.5998 | 921.798 ± 0.2
343.15 K, w1 = 0.7002 | 956.784 ± 0.2
343.15 K, w1 = 0.8001 | 990.826 ± 0.19
343.15 K, w1 = 0.8417 | 1005.84 ± 0.2
348.14 K, w1 = 0.1 | 766.805 ± 0.15
348.14 K, w1 = 0.1999 | 794.6 ± 0.15
348.14 K, w1 = 0.3 | 824.049 ± 0.17
348.14 K, w1 = 0.5998 | 917.813 ± 0.2
348.14 K, w1 = 1 | 1060.68 ± 0.28
348.15 K, w1 = 0.3999 | 853.893 ± 0.19
348.15 K, w1 = 0.5001 | 885.244 ± 0.22
348.15 K, w1 = 0.7002 | 952.934 ± 0.2
348.15 K, w1 = 0.8001 | 987.083 ± 0.19
348.15 K, w1 = 0.8417 | 1001.85 ± 0.2
348.15 K, w1 = 0.8997 | 1023.57 ± 0.23
